# Measurements as given in patent US12390440B2, “Immunomodulating trifluoromethyl-aminal azalides” (Zoetis Services LLC, priority 2020, dated 2025).
# Like-named read-outs stand apart in the source and are kept apart here.
# Assays:
# E. coli = experiment: MIC, E. coli; conditions: Escherichia coli
# [1] = tested on: BRD pathogens, M. haemolytica and P. multocida; experiment: MIC screening panel, BRD pathogens (CLSI broth micro-dilution); conditions: read-out: MIC flag (*) at Ex #
# IL-1β = experiment: Bovine whole blood assay, IL-1β; assay type: cell-based; conditions: overstimulation of IL-1β, perceived cellular toxicity concentration;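 further: compound concentration at which rising IL-1β release signals cytotoxicity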
# Method: (§1) (protected from light) for 30 minutes.
# TNF-α = experiment: Bovine whole blood assay, LPS-induced TNF-α; assay type: cell-based; conditions: Bos taurus, fresh whole bovine blood, LPS 1 μg/mL
# Method: as §1
# S. aureus = experiment: MIC, S. aureus; conditions: Staphylococcus aureus
# P. multocida 46572 = experiment: In vivo mouse lung infection challenge model (murine efficacy); conditions: for % Survival: 20 mg/kg subcutaneous, harmonized survival relative to vehicle and M9 controls, study ended Day 10
# Method: The challenge organism was P. multocida 46572. Target challenge concentration was 5×10^2 CFU/mouse. Isolated colonies from overnight growth (37° C. with 5% CO2) on trypticase soy agar (TSA II) blood plates were transferred to room temperature Brain Heart Infusion Broth (BHIB). The broth culture was incubated 3.5-4 hours to approximately mid-log phase of growth, as measured by forward light scatter at 600 nm (OD600, 0.200). The culture was centrifuged to collect the bacterial pellet. The pellet was re-suspended in BHIB and adjusted to provide an approximate concentration of 2.7 log^10 colony forming units (CFU) in 0.04 mL at the highest concentration. The challenge inoculum concentration was confirmed by serial dilutions of the inoculum for CFU enumeration. On Day −5, CD-1 female mice were received. Mice were given standard rodent diet and water ad libitum. On Day 0, bacterial inoculum (0.04 mL) was administered to each mouse (n=36) intranasally. Compounds of the invention were dosed at 20 mg/kg (0.1 mL) in a buffered (˜pH 5.4) propylene glycol, monothioglycerol and water solution by subcutaneous injection. Animals were observed from Days 1-10. The study was terminated on Day 10. In addition, some treatment groups were sampled at 6, 24, and 48 hours post bacterial challenge for RNA sequence analysis of lung tissue.
# The murine efficacy model (P. multocida challenge) was optimized, and the treatment group size was powered to be able to observe statistically significant improvement of survival to expected ranges for immunomodulatory compounds. The experimental design was a randomized complete block design. Mice were individually identified and treatment groups comingled within a cage, with every treatment group equally represented across cages. Mortality was the primary variable. Mortality data was analyzed using a generalized mixed model with fixed effect of treatment and random effect of block. Survival time was also analyzed using the SAS PHREG (survival analysis) procedure to examine whether there were significant differences between treatment groups and the control group. Numerous compounds of the invention and M9 (positive control) were tested in this model at a dose of 20 mg/kg (Table 3). Typical percent survival for no treatment control is in the range of 0-20% based on study to study variation in challenge inoculum and rate of infection. […] Mouse survival for M9 was about 90-100%, further supporting its residual antibacterial properties against the bacterial strain. Harmonized survival accounts for % survival relative to vehicle (“−” control) and M9 (“+” control)) survival data (Table 3).
# P. multocida = experiment: MIC, P. multocida; conditions: for MIC: Pasteurella multocida
# M. haemolytica = experiment: MIC, M. haemolytica; conditions: for MIC: Mannheimia haemolytica
# IL-6 = experiment: Bovine whole blood assay, IL-6; assay type: cell-based; conditions: Bos taurus, fresh whole bovine blood, LPS 1 μg/mL
# Method: as §1
# H. somni = experiment: MIC, H. somni; conditions: H. somni strains
# [2] = P. multocida 46572, murine efficacy challenge strain
# [3] = M. haemolytica 46571, bovine efficacy challenge strain
Compound,MIC (E. coli; E. coli 25922) [µg/mL],MIC (E. coli; E. coli W3110) [µg/mL],IL-1β OS of LPS (IL-1β) [µM],IC50 (TNF-α) [µM],MIC (S. aureus) [µg/mL],% Survival (P. multocida 46572) [%],MIC (P. multocida; P. multocida 43137) [µg/mL],MIC (P. multocida; [2]) [µg/mL],MIC (M. haemolytica; M. haemolytica 12726) [µg/mL],MIC (M. haemolytica; M. haemolytica 33396) [µg/mL],MIC (M. haemolytica; [3]) [µg/mL],"MIC values, range over strains (H. somni) [µg/mL]",further results
"CCCNC[C@]1(O)[C@H](C)O[C@@H](O[C@H]2[C@H](C)[C@@H](O[C@@H]3O[C@H](C)C[C@H]4[C@H]3OC(C(F)(F)F)N4C)[C@](C)(O)C[C@@H](C)CN[C@H](C)[C@@H](O)[C@](C)(O)[C@@H](CC)OC(=O)[C@@H]2C)C[C@@]1(C)OC (stereo partly drawn) [Example A-1, (2R,3S,4R,5R,8R,10R,11R,12S,13S,14R)-11-(((3aR,4S,6R,7aS)-1,6-dimethyl-2-(trifluoromethyl)hexahydro-2H-pyrano[4,3-d]oxazol-4-yl)oxy)-2-ethyl-13-(((2R,4R,5S,6S)-5-((propylamino)methyl)-5-hydroxy-4-methoxy-4,6-dimethyltetrahydro-2H-pyran-2-yl)oxy)-3,4,10-trihydroxy-3,5,8,10,12,14-hexamethyl-1-oxa-6-azacyclopentadecan-15-one]",> 64,> 64,>500,< 3,> 64,43,> 64,64,> 64,> 64,> 64,,"MIC [1]: < 64 µg/mL; MIC (P. multocida; read-out: MIC flag (*) at Ex. #, P. multocida challenge strain (46572K), Table 3): < 64 µg/mL"
"CC[C@H]1OC(=O)[C@H](C)[C@@H](O[C@H]2C[C@@](C)(OC)[C@](O)(CNCCOC)[C@H](C)O2)[C@H](C)[C@@H](O[C@@H]2O[C@H](C)C[C@H]3[C@H]2OC(C(F)(F)F)N3C)[C@](C)(O)C[C@@H](C)CN[C@H](C)[C@@H](O)[C@]1(C)O (stereo partly drawn) [Example A-2, (2R,3S,4R,5R,8R,10R,11R,12S,13S,14R)-11-(((3aR,4S,6R,7aS)-1,6-dimethyl-2-(trifluoromethyl)hexahydro-2H-pyrano[4,3-d]oxazol-4-yl)oxy)-2-ethyl-3,4,10-trihydroxy-13-(((2R,4R,5S,6S)-5-hydroxy-4-methoxy-5-(((2-methoxyethyl)amino)methyl)-4,6-dimethyltetrahydro-2H-pyran-2-yl)oxy)-3,5,8,10,12,14-hexamethyl-1-oxa-6-azacyclopentadecan-15-one]",,,,,,18,,,,,,,
"CC[C@H]1OC(=O)[C@H](C)[C@@H](O[C@H]2C[C@@](C)(OC)[C@](O)(CNCCO)[C@H](C)O2)[C@H](C)[C@@H](O[C@@H]2O[C@H](C)C[C@H]3[C@H]2OC(C(F)(F)F)N3C)[C@](C)(O)C[C@@H](C)CN[C@H](C)[C@@H](O)[C@]1(C)O (stereo partly drawn) [Example A-3, (2R,3S,4R,5R,8R,10R,11R,12S,13S,14R)-11-(((3aR,4S,6R,7aS)-1,6-dimethyl-2-(trifluoromethyl)hexahydro-2H-pyrano[4,3-d]oxazol-4-yl)oxy)-2-ethyl-3,4,10-trihydroxy-13-(((2R,4R,5S,6S)-5-hydroxy-5-(((2-hydroxyethyl)amino)methyl)-4-methoxy-4,6-dimethyltetrahydro-2H-pyran-2-yl)oxy)-3,5,8,10,12,14-hexamethyl-1-oxa-6-azacyclopentadecan-15-one]",> 64,> 64,32,20,> 64,11,> 64,> 64,> 64,> 64,> 64,,IC50 (IL-6): 40 µM
"CC[C@H]1OC(=O)[C@H](C)[C@@H](O[C@H]2C[C@@](C)(OC)[C@](O)(CNCCN3CCCC3=O)[C@H](C)O2)[C@H](C)[C@@H](O[C@@H]2O[C@H](C)C[C@H]3[C@H]2OC(C(F)(F)F)N3C)[C@](C)(O)C[C@@H](C)CN[C@H](C)[C@@H](O)[C@]1(C)O (stereo partly drawn) [Example A-12, (2R,3S,4R,5R,8R,10R,11R,12S,13S,14R)-11-(((3aR,4S,6R,7aS)-1,6-dimethyl-2-(trifluoromethyl)hexahydro-2H-pyrano[4,3-d]oxazol-4-yl)oxy)-2-ethyl-3,4,10-trihydroxy-13-(((2R,4R,5S,6S)-5-hydroxy-4-methoxy-4,6-dimethyl-5-(((2-(2-oxopyrrolidin-1-yl)ethyl)amino)methyl)tetrahydro-2H-pyran-2-yl)oxy)-3,5,8,10,12,14-hexamethyl-1-oxa-6-azacyclopentadecan-15-one]",> 64,> 64,40,45,> 64,,> 64,> 64,> 64,> 64,> 64,,IC50 (IL-6): 24 µM
"CC[C@H]1OC(=O)[C@H](C)[C@@H](O[C@H]2C[C@@](C)(OC)[C@](O)(CN3CCOCC3)[C@H](C)O2)[C@H](C)[C@@H](O[C@@H]2O[C@H](C)C[C@H]3[C@H]2OC(C(F)(F)F)N3C)[C@](C)(O)C[C@@H](C)CN[C@H](C)[C@@H](O)[C@]1(C)O (stereo partly drawn) [Example B-1, (2R,3S,4R,5R,8R,10R,11R,12S,13S,14R)-11-(((3aR,4S,6R,7aS)-1,6-dimethyl-2-(trifluoromethyl)hexahydro-2H-pyrano[4,3-d]oxazol-4-yl)oxy)-2-ethyl-3,4,10-trihydroxy-13-(((2R,4R,5S,6S)-5-hydroxy-4-methoxy-4,6-dimethyl-5-(morpholinomethyl)tetrahydro-2H-pyran-2-yl)oxy)-3,5,8,10,12,14-hexamethyl-1-oxa-6-azacyclopentadecan-15-one]",> 64,> 64,13,10,> 64,,> 64,> 64,> 64,> 64,> 64,,
"CC[C@H]1OC(=O)[C@H](C)[C@@H](O[C@H]2C[C@@](C)(OC)[C@](O)(CN3CCN(C)CC3)[C@H](C)O2)[C@H](C)[C@@H](O[C@@H]2O[C@H](C)C[C@H]3[C@H]2OC(C(F)(F)F)N3C)[C@](C)(O)C[C@@H](C)CN[C@H](C)[C@@H](O)[C@]1(C)O (stereo partly drawn) [Example B-2, (2R,3S,4R,5R,8R,10R,11R,12S,13S,14R)-11-(((3aR,4S,6R,7aS)-1,6-dimethyl-2-(trifluoromethyl)hexahydro-2H-pyrano[4,3-d]oxazol-4-yl)oxy)-2-ethyl-3,4,10-trihydroxy-13-(((2R,4R,5S,6S)-5-hydroxy-4-methoxy-4,6-dimethyl-5-((4-methylpiperazin-1-yl)methyl)tetrahydro-2H-pyran-2-yl)oxy)-3,5,8,10,12,14-hexamethyl-1-oxa-6-azacyclopentadecan-15-one]",,,5,5,,47,,,,,,,"clinical efficacy in P. multocida infection in mice (P. multocida 46572; mouse, in vivo): clinically efficacious"
CCN1CCN(c2cc3c(cc2F)c(=O)c(C(=O)O)cn3C2CC2)CC1 [enrofloxacin],,,,,,,,,,,,<0.06 to 1,
CS(=O)(=O)c1ccc([C@@H](O)[C@@H](CF)NC(=O)C(Cl)Cl)cc1 [florfenicol],,,,,,,,,,,,0.12 to 2,
"CCCN1C[C@H](C)[C@@H](O)[C@](C)(O)[C@@H](CC)OC(=O)[C@H](C)[C@@H](O[C@H]2C[C@@](C)(OC)[C@@H](O)[C@H](C)O2)[C@H](C)[C@@H](O[C@@H]2O[C@H](C)C[C@H](N(C)C)[C@H]2O)[C@](C)(O)C[C@H]1C [gamithromycin, reference compound]",,,,,,,,,,,,0.25 to 8,"MIC values, range over strains (P. multocida; the same P. multocida strains of the screening panel): 1 to 2 µg/mL; MIC values, range over strains (M. haemolytica; the same M. haemolytica strains of the screening panel): 0.5 to 1 µg/mL"
